Columns and labels:
Type in all cases: cell-based
[1] = system: Saccharomyces cerevisiae wild type strain BY4743; assay: AF1 combined gene expression and metabolite mapping to KEGG reactions and pathways
Text: In AF1, two different technologies were utilized: gene expression analysis (for examination of mRNA expression) and metabolite analysis. […] As noted previously, existing metabolic databases may be helpful in practicing the methods and systems of the present invention, but many databases include limitations that make their use in data analysis and pathway mapping less than straightforward. […] This caveat to KEGG makes it difficult to pinpoint the correct pathway when attempting to link a gene to a specific pathway. […] The pathway score indicates how meaningful the mapping is, or how likely it is to be correctly indicative of the pathway involved in the perturbation under examination. The method provides a pathway score based on perturbation levels of genes and/or compounds and the information content of each gene and/or compound in the pathway, i.e., a pathway score indicates the extent to which other pathways are mapped to a gene/compound. […] Degree of perturbation can be calculated, for example, based on a number of standard deviations from a norm, and included in an equation such as the one shown above, so that not only the number of pathways is taken into account, but also accounts for the amount of gene transcript or compound present as compared to a control. […] Of the 676 compounds under consideration, 77 were detected in the AF1 samples. […]

[2] = system: Saccharomyces cerevisiae wild type strain BY4743; assay: AF1 yeast metabolite analysis by GC-MS and LC-MS; details: for # Compounds perturbed: 2×MIC, two hours
[3] = system: Saccharomyces cerevisiae wild type strain BY4743; assay: AF1 yeast gene expression analysis (microarray); details: p < 0.05, KEGG mapping
Protocol: Saccharomyces cerevisiae wild type strain BY4743 was purchased from American Type Culture Center (ATCC, Manassas, Va.). The yeast strain was grown in YPD or SD media. […] The cultures started from fresh single colonies were grown in 1.0 ml YPD overnight at 30° C. […] The OD600 was adjusted to 1.0 with YPD media, then 2.0 ml of each was inoculated into three 250 ml flasks, each containing 50 ml of SD media. […] The cells were kept growing for another two hours, then collected by centrifugation at 4000 rpm for 5 minutes at 4° C. Pellets were washed once with ice-cold water, then were lyophilized overnight at 4° C. […] RNA quality was determined using the Bioanalyzer 2100 and the RNA 6000 assay (Agilent Technologies, Palo Alto, Calif.) according to manufacturer's instructions. RNA concentrations were determined spectrophotometrically by measuring the absorption at 260 nm in an Ultrospec 2000 (Pharmacia Biotech, Piscataway, N.J.). […] Labeled cRNAs were evaluated using the RNA 6000 assay on the Agilent Bioanalyzer 2100. Labeled cRNA concentrations were determined spectrophotometrically by measuring the absorption at 260 nm in an Ultrospec 2000 (Pharmacia Biotech, Piscataway, N.J.). […] Each feature was determined from an array's associated pattern file and a detection algorithm. […] Data was evaluated after combining results from fluor reversal replicate hybridizations. […]

C[C@@H]1[C@H](O)[C@@H](C)/C=C/C=C/C=C/C=C/C=C/C=C/C=C/[C@H](O[C@@H]2O[C@H](C)[C@@H](O)[C@H](N)[C@@H]2O)C[C@@H]2O[C@](O)(C[C@@H](O)C[C@@H](O)[C@H](O)CC[C@@H](O)C[C@@H](O)CC(=O)O[C@H]1C)C[C@H](O)[C@H]2C(=O)O [Amphoteracin B]
Number of Reactions Having an Enzyme and at Least One Compound Perturbed [1]: 54 | # Compounds perturbed ([2]; P < 0.05): 16 | # Compounds perturbed ([2]; P < 0.1): 21 | Fold Change of campesterol ([2]; platform GC): 0 | Fold Change of desmosterol ([2]; platform GC): 0 | Fold Change of octadecanoic acid ([2]; platform GC): 0.21 | Fold Change of abscisic acid ([2]; platform LC): 0 | Fold Change of adenosine ([2]; platform LC): 0 | Fold Change of riboflavin ([2]; platform LC): 0 | Fold Change of 4-methylcatechol ([2]; platform nLC): 0 | Fold Change of 5hydroxyLtryptophan ([2]; platform nLC): 0 | Fold Change of 6-benzylaminopurine ([2]; platform nLC): 0 | Fold Change of NacetylDglucosamine ([2]; platform nLC): 0 | Fold Change of NacetylLornithine ([2]; platform nLC): 0 | Fold Change of abscisic acid ([2]; platform nLC): 0 | Fold Change of adenine ([2]; platform nLC): 0 | Fold Change of adenosine ([2]; platform nLC): 0 | Fold Change of anthranilic acid ([2]; platform nLC): 0 | Fold Change of argininosuccinate ([2]; platform nLC): 0 | Fold Change of benzoic acid ([2]; platform nLC): 0 | Fold Change of catechol ([2]; platform nLC): 0 | Fold Change of cinnamic acid ([2]; platform nLC): 0 | Fold Change of citricanoic/itaconi ([2]; platform nLC): 0 | Fold Change of coumaric acid ([2]; platform nLC): 0 | Fold Change of cytosine ([2]; platform nLC): 0 | Fold Change of diaminopimelic acid ([2]; platform nLC): 0 | Fold Change of dihydrofolic acid ([2]; platform nLC): 0 | Fold Change of estrone ([2]; platform nLC): 0 | Fold Change of farnesol ([2]; platform nLC): 0 | Fold Change of folic acid ([2]; platform nLC): 0 | Fold Change of gibberellic ([2]; platform nLC): 0 | Fold Change of glutamine/lysine ([2]; platform nLC): 0.07919 | Fold Change of guanine ([2]; platform nLC): 0 | Fold Change of histidine ([2]; platform nLC): 0 | Fold Change of homogentisic/uric ([2]; platform nLC): 0 | Fold Change of hydrocortisone ([2]; platform nLC): 0 | Fold Change of indole3pyruvic acid ([2]; platform nLC): 0 | Fold Change of jasmonic acid ([2]; platform nLC): 0 | Fold Change of kinetin ([2]; platform nLC): 0 | Fold Change of luteolin ([2]; platform nLC): 0 | Fold Change of malonic acid ([2]; platform nLC): 0 | Fold Change of methionine ([2]; platform nLC): 0 | Fold Change of phenylpyruvic acid ([2]; platform nLC): 0 | Fold Change of phosphoenolpyruvate ([2]; platform nLC): 0 | Fold Change of pinitol ([2]; platform nLC): 0 | Fold Change of porphobilinogen ([2]; platform nLC): 0 | Fold Change of retinoic acid ([2]; platform nLC): 0 | Fold Change of salicylic/HObenzoic ([2]; platform nLC): 0 | Fold Change of shikimic acid ([2]; platform nLC): 0 | Fold Change of sinapinic acid ([2]; platform nLC): 0 | Fold Change of thymine ([2]; platform nLC): 0 | Fold Change of urocanic acid ([2]; platform nLC): 0 | Fold Change of xanthosineDiH2O ([2]; platform nLC): 0 | Fold Change of zeatin ([2]; platform nLC): 0 | Fold Change of 4-aminobenzoic acid ([2]; platform pLC): 0 | Fold Change of 4-methylcatechol ([2]; platform pLC): 0 | Fold Change of 5hydroxyLtryptophan ([2]; platform pLC): 0 | Fold Change of 6benzylaminopurine ([2]; platform pLC): 0 | Fold Change of NacetylDglucosamine ([2]; platform pLC): 0 | Fold Change of NacetylLglutamate ([2]; platform pLC): 0 | Fold Change of allantoic acid ([2]; platform pLC): 0 | Fold Change of anthranilic acid ([2]; platform pLC): 0 | Fold Change of argininosuccinate ([2]; platform pLC): 0 | Fold Change of biotin ([2]; platform pLC): 0 | Fold Change of caffeine ([2]; platform pLC): 0 | Fold Change of citric acid TME ([2]; platform pLC): 0 | Fold Change of cytidine ([2]; platform pLC): 0 | Fold Change of cytosine ([2]; platform pLC): 0 | Fold Change of diaminopimelic acid ([2]; platform pLC): 0 | Fold Change of dihydrofolic acid ([2]; platform pLC): 0 | Fold Change of dipicolinic acid ([2]; platform pLC): 0 | Fold Change of folic acid ([2]; platform pLC): 0 | Fold Change of glucosamine ([2]; platform pLC): 0 | Fold Change of glucosamine6PO4 ([2]; platform pLC): 0 | Fold Change of histidine ([2]; platform pLC): 0 | Fold Change of hydrocortisone ([2]; platform pLC): 0 | Fold Change of itaconic acid dimes ([2]; platform pLC): 0 | Fold Change of kinetin ([2]; platform pLC): 0 | Fold Change of luteolin ([2]; platform pLC): 0 | Fold Change of niacinamide ([2]; platform pLC): 0 | Fold Change of nopaline ([2]; platform pLC): 0 | Fold Change of phosphoenolpyruvate ([2]; platform pLC): 0 | Fold Change of progesterone ([2]; platform pLC): 0 | Fold Change of sugar-phosphate ([2]; platform pLC): 0 | Fold Change of thiamine ([2]; platform pLC): 0 | Fold Change of thymine ([2]; platform pLC): 0 | Fold Change of tryptophan ([2]; platform pLC): 0 | Fold Change of urocanic acid ([2]; platform pLC): 0 | Fold Change of xanthosine(diH2O) ([2]; platform pLC): 0 | Fold Change of zeatin ([2]; platform pLC): 0 | # Pathways Affected by at Least One Gene [3]: 97
